Laboratory results taken from the NIST ThermoML archive (doi:10.1021/je700260f).

Details: 283.14 K, Liquid, Vibrating tube method

FC(C(F)(F)F)C(F)(F)F [1,1,1,2,3,3,3-heptafluoropropane]
Details	mass density [kg/m3]
933 kPa	1452.5
962 kPa	1452.6
988 kPa	1452.7
1029 kPa	1453
1062 kPa	1453.3
1091 kPa	1453.4
1127 kPa	1453.7
1160 kPa	1453.8
1193 kPa	1454
1227 kPa	1454.2
1264 kPa	1454.5
1297 kPa	1454.5
1331 kPa	1454.9
1362 kPa	1454.9
1400 kPa	1455.2
1438 kPa	1455.5
1476 kPa	1455.6
1508 kPa	1455.9
1543 kPa	1456
1576 kPa	1456.3
1621 kPa	1456.5
1656 kPa	1456.8
1696 kPa	1456.8
1725 kPa	1457.1
1760 kPa	1457.3
1800 kPa	1457.5
1829 kPa	1457.7
1869 kPa	1457.9
1899 kPa	1458.1
1939 kPa	1458.4
1978 kPa	1458.6
2027 kPa	1458.8
2062 kPa	1459.1
2097 kPa	1459.2
2137 kPa	1459.6
2167 kPa	1459.6
2214 kPa	1460
2245 kPa	1460.1
2282 kPa	1460.4
2317 kPa	1460.6
2349 kPa	1460.8
2385 kPa	1460.9
2431 kPa	1461.1
2457 kPa	1461.1
2499 kPa	1461.5
2536 kPa	1461.6
2578 kPa	1461.9
2615 kPa	1462.1
3150 kPa	1465
3179 kPa	1465.2
3208 kPa	1465.5
3236 kPa	1465.6
3261 kPa	1465.6
3292 kPa	1465.8
3316 kPa	1465.9
3349 kPa	1466.2
3370 kPa	1466.4
3404 kPa	1466.4
3440 kPa	1466.6
3467 kPa	1466.9
3502 kPa	1467
3528 kPa	1467
3555 kPa	1467.3
3582 kPa	1467.3
3606 kPa	1467.5
3630 kPa	1467.6
3997 kPa	1469.6
4037 kPa	1469.8
4059 kPa	1469.8
4089 kPa	1470.1
4112 kPa	1470.1
4138 kPa	1470.4
4161 kPa	1470.5
4194 kPa	1470.6
4220 kPa	1470.8
4246 kPa	1470.9
4268 kPa	1471.1
4295 kPa	1471.2
4326 kPa	1471.4
4370 kPa	1471.5
4397 kPa	1471.6
4431 kPa	1471.8
4454 kPa	1472
4485 kPa	1472.1
4521 kPa	1472.3
4552 kPa	1472.4
4587 kPa	1472.7
4611 kPa	1472.8
4642 kPa	1472.9
4662 kPa	1473.1
4691 kPa	1473.2
4714 kPa	1473.3
4746 kPa	1473.5
4770 kPa	1473.6
4833 kPa	1473.9
4872 kPa	1474.1
4976 kPa	1474.5
5454 kPa	1477.2
5490 kPa	1477.3
5691 kPa	1478.2
5724 kPa	1478.4
5757 kPa	1478.6
5782 kPa	1478.8
5822 kPa	1478.8
5855 kPa	1479
5879 kPa	1479.1
5908 kPa	1479.3
5934 kPa	1479.4
5968 kPa	1479.6
6005 kPa	1479.8
6027 kPa	1480
6058 kPa	1480
6101 kPa	1480.2
6135 kPa	1480.5
6165 kPa	1480.5
6229 kPa	1480.8
6973 kPa	1484.5
7472 kPa	1486.7
7512 kPa	1487.1
7539 kPa	1487.1
7568 kPa	1487.2
7596 kPa	1487.1
7625 kPa	1487.3
7646 kPa	1487.8
7680 kPa	1487.8
7705 kPa	1487.9
7731 kPa	1488
7762 kPa	1488.1
7796 kPa	1488.3
7826 kPa	1488.4
7851 kPa	1488.5
7877 kPa	1488.7
7906 kPa	1488.9
7932 kPa	1488.9
7965 kPa	1489
7991 kPa	1489.2
8025 kPa	1489.4
8050 kPa	1489.5
8079 kPa	1489.7
8109 kPa	1489.6
8138 kPa	1489.9
8164 kPa	1490.1
8197 kPa	1490
8223 kPa	1490.2
8257 kPa	1490.4
8291 kPa	1490.6
8322 kPa	1490.7
10618 kPa	1500.7
10644 kPa	1500.8
10678 kPa	1500.9
10708 kPa	1501.2
10744 kPa	1501.3
11092 kPa	1502.7
11124 kPa	1502.9
11146 kPa	1503
11176 kPa	1503.1
11211 kPa	1503.2
11232 kPa	1503.2
11263 kPa	1503.4
11289 kPa	1503.6
11324 kPa	1503.9
11358 kPa	1503.9
11384 kPa	1503.9
11414 kPa	1504.1
11455 kPa	1504.2
11478 kPa	1504.3
11508 kPa	1504.4
11538 kPa	1504.5
11565 kPa	1504.7
11601 kPa	1504.8
11631 kPa	1505
11663 kPa	1505
11698 kPa	1505.4
11725 kPa	1505.4
11760 kPa	1505.6
11791 kPa	1505.6
11822 kPa	1505.7
11844 kPa	1505.9
11874 kPa	1506
11901 kPa	1506.1
11923 kPa	1506.3
11958 kPa	1506.3
11993 kPa	1506.4
12020 kPa	1506.5
12055 kPa	1506.7
12082 kPa	1506.9
12816 kPa	1509.7
12856 kPa	1510.1
12892 kPa	1510.2
12918 kPa	1510.3
12955 kPa	1510.4
12996 kPa	1510.6
13027 kPa	1510.6
13054 kPa	1510.9
13090 kPa	1510.9
13123 kPa	1511
13165 kPa	1511.2
13197 kPa	1511.2
13235 kPa	1511.5
13290 kPa	1511.7
13323 kPa	1511.8
13385 kPa	1512
13417 kPa	1512.2
13454 kPa	1512.2
13483 kPa	1512.4
13521 kPa	1512.6
13550 kPa	1512.5
13594 kPa	1512.8
13629 kPa	1513
13672 kPa	1513.2
13707 kPa	1513.2
13754 kPa	1513.5
13783 kPa	1513.6
13814 kPa	1513.7
13848 kPa	1513.7
13878 kPa	1513.9
13913 kPa	1514.1
13943 kPa	1514.1
13983 kPa	1514.3
14013 kPa	1514.5
14057 kPa	1514.7
14086 kPa	1514.9
14121 kPa	1514.9
14157 kPa	1515.1
14187 kPa	1515.1
14217 kPa	1515.2
14261 kPa	1515.5
14304 kPa	1515.6
14343 kPa	1515.8
14377 kPa	1515.8
14406 kPa	1516.1
14435 kPa	1516.1
14464 kPa	1516.2
14504 kPa	1516.4
14534 kPa	1516.3
14580 kPa	1516.6
15750 kPa	1521.1
15778 kPa	1521.3
15811 kPa	1521.3
15838 kPa	1521.3
15867 kPa	1521.5
15896 kPa	1521.5
15929 kPa	1521.8
15966 kPa	1521.9
15994 kPa	1521.8
16031 kPa	1522
16054 kPa	1522.2
16198 kPa	1522.7
16235 kPa	1522.8
16269 kPa	1522.9
16306 kPa	1523.1
16339 kPa	1523.3
16372 kPa	1523.4
16405 kPa	1523.5
16433 kPa	1523.7
16471 kPa	1523.7
16499 kPa	1523.9
16541 kPa	1523.9
16574 kPa	1524.1
16649 kPa	1524.3
16739 kPa	1524.6
16776 kPa	1524.8
16803 kPa	1525
16836 kPa	1525
16864 kPa	1525.1
16892 kPa	1525.2
16935 kPa	1525.3
16967 kPa	1525.6
17015 kPa	1525.7
17055 kPa	1525.8
17079 kPa	1525.9
17116 kPa	1526
17145 kPa	1526.1
17173 kPa	1526.2
17206 kPa	1526.4
17248 kPa	1526.5
17271 kPa	1526.5
17304 kPa	1526.7
17332 kPa	1526.8
17370 kPa	1527
17413 kPa	1527.2
17622 kPa	1527.9
17656 kPa	1528.1
17691 kPa	1528.1
17729 kPa	1528.3
17758 kPa	1528.4
17786 kPa	1528.5
17820 kPa	1528.6
17850 kPa	1528.6
17893 kPa	1528.8
17922 kPa	1529
17961 kPa	1529
18006 kPa	1529.3
18060 kPa	1529.4
18090 kPa	1529.5
18129 kPa	1529.6
18164 kPa	1529.7
18194 kPa	1529.9
18233 kPa	1530
18274 kPa	1530
18312 kPa	1530.2
18389 kPa	1530.5
18616 kPa	1531.3
18645 kPa	1531.6
18675 kPa	1531.4
18719 kPa	1531.7
18754 kPa	1531.8
18793 kPa	1531.9
18821 kPa	1532
18862 kPa	1532.3
18911 kPa	1532.4
18933 kPa	1532.4
18973 kPa	1532.7
19007 kPa	1532.6
19042 kPa	1532.7
19087 kPa	1533
19118 kPa	1533.1
19150 kPa	1533.1
19177 kPa	1533.3
19213 kPa	1533.4
19240 kPa	1533.5
19277 kPa	1533.6
19309 kPa	1533.7
19337 kPa	1533.9
19373 kPa	1534
19406 kPa	1534.1
20075 kPa	1536.4
20104 kPa	1536.4
20142 kPa	1536.6
20175 kPa	1536.7
20372 kPa	1537.3
20424 kPa	1537.4
20453 kPa	1537.6
22509 kPa	1544.4
22609 kPa	1544.6
22639 kPa	1544.7
22675 kPa	1545
22904 kPa	1545.6
22939 kPa	1545.7
23014 kPa	1546
23096 kPa	1546.2
23454 kPa	1547.3
23496 kPa	1547.4
23531 kPa	1547.5
23562 kPa	1547.6
23603 kPa	1547.8
23638 kPa	1548
23709 kPa	1548.1
23828 kPa	1548.6
23869 kPa	1548.8
23896 kPa	1548.7
23944 kPa	1548.9
23985 kPa	1548.9
24017 kPa	1549.2
24350 kPa	1550.1
24387 kPa	1550.2
24422 kPa	1550.4
24459 kPa	1550.4
24490 kPa	1550.5
24532 kPa	1550.8
24572 kPa	1550.8
25104 kPa	1552.3
25136 kPa	1552.5
25173 kPa	1552.8
25209 kPa	1552.7
25250 kPa	1553
25282 kPa	1552.9
25327 kPa	1553.2
25365 kPa	1553.4
25402 kPa	1553.3
25434 kPa	1553.5
25476 kPa	1553.6
25550 kPa	1553.9
25673 kPa	1554.3
25766 kPa	1554.5
25800 kPa	1554.6
25832 kPa	1554.7
25913 kPa	1554.9
26847 kPa	1557.6
27304 kPa	1559.1
27346 kPa	1559.3
27389 kPa	1559.3
27418 kPa	1559.4
27466 kPa	1559.4
27495 kPa	1559.6
27777 kPa	1560.4
28197 kPa	1561.7
28230 kPa	1561.8
28264 kPa	1561.8
28306 kPa	1562.1
28335 kPa	1562.1
28371 kPa	1562
28399 kPa	1562.2
28437 kPa	1562.3
28909 kPa	1563.6
28942 kPa	1563.9
28978 kPa	1564
29016 kPa	1564.1
29044 kPa	1564.1
29121 kPa	1564.3
29155 kPa	1564.3
29185 kPa	1564.4
29223 kPa	1564.5
29257 kPa	1564.7
29291 kPa	1564.7
29319 kPa	1564.9
29391 kPa	1565
29500 kPa	1565.3
29534 kPa	1565.4
30122 kPa	1567.2
